Experiments:
[1] = system: Soiled sponge samples (microbe reduction); assay: Odor prevention performance, SOLARIS detection of acidic respiratory byproducts; format: cell-based; conditions: sponge treated 15 minutes, dried 12 hours; incubated 120 hrs at 37° C.
Description: The Control formulation containing no malodor control polymer or zinc salt, and Formulations containing individual polymers, zinc salts, and zinc-polymer complexes are compared for their effect on odor prevention, through microbe reduction.
Soiled sponge samples were cut into 1×6 cm strips and treated with the solutions (Table 10) for 15 minutes and dried at ambient temperature for 12 hours. The treated 1 cm strips were then cut into lx1 cm pieces, placed into SOLARIS scintillation vials, and 1 ml of MOPS buffer was added. The open vials were placed into outer SOLARIS vials containing thymolphthalein blue pH indicator and the vials were finally capped. The sealed vials were placed into a SOLARIS machine and incubated for 120 hrs at 37° C. Colorimetric measurements were conducted according to SOLARIS VIV protocol and the detection times of acidic respiratory byproducts were record (Table 10).

[2] = Sulfur odor control performance of zinc polymer complexes, headspace GC/MS; conditions: spiked with 3 parts-per-million; 2 hours room temperature, 30 minutes 35° C.; Control = 1.0
Description: Butanethiol and dipropoyl sulfide were chosen as chemical surrogates for sulfur containing odors such as kitchen (onion/garlic), sewage, etc. These two molecules also enable the assessment of efficacy of polymer for sulfur molecules having different degrees of hydrophobicity (e.g more hydrophobic dipropylsulfide is usually harder to mitigate with hydrophilic technologies such as cyclodextrin).
5 ml test solution was placed in a GC-MS vial and spiked with 3 parts-per-million of butanethiol or dipropylsulfide. The solutions were first equilibrated at room temperature for 2 hours, then incubated at 35° C. for 30 minutes. The headspace of each vial was finally sampled using a PDMS/SPME fiber and analyzed by GC/MS. The reductions in head space concentrations of sulfur molecules were measured and the data were normalized to Control (Table 9).

[3] = Malodor control performance of HMPs, headspace SPME GC/MS of spiked test solution; conditions: 5 ml test solution spiked with 5 microliters; 2 hours room temperature, 30 minutes 35° C.; Control = 1.0
Description: This example illustrates the malodor efficacy of the HMPs of the present invention. Isovaleric acid was chosen as a chemical surrogate for body odor while butylamine was used as a representative for amine-containing odors such as fish, pet urine, etc. Hydrophobic greasy cooking odors were represented by aldehydes such as nonanal.
The solutions are first equilibrated at room temperature for 2 hours, then incubated at 35° C. for 30 minutes. The headspace of each vial is finally sampled using a polydimethyl siloxane (PDMS) / Solid-Phase-Micro-Extraction (SPME) fiber and analyzed by GC/MS. The reductions in head space concentrations of odor molecules are measured and the data are normalized to Control.
Lower numbers denote high levels of malodor molecules present in the solution that are attributed to high malodor control efficacy of polymers.

[4] = Table 1, Accord A; cited from earlier work
[5] = benchmark for HMPs; cited from earlier work

[Cl-].[Cl-].[Zn+2] [ZnCl2]
Respiratory Byproducts Detection Time [1]: 3.38 h
Butanethiol head space concentration normalized to Control [2]: 0.8
Dipropylsulfide head space concentration normalized to Control [2]: 1.0
Butylamine (Fish) head space concentration normalized to Control [3]: 0.0
Isovaleric Acid (Body) head space concentration normalized to Control [3]: 1.0
Nonanal (Grease) head space concentration normalized to Control [3]: 1.0

COC1CC2CC1C1CC(C=O)CC21 (stereo not shown) [Scentenal, octahydro-5-methoxy-4,7-Methano-1H-indene-2-carboxaldehyde]
VP(torr) @25° C. [4]: 0.010 torr

hydroxypropyl modified beta cyclodextrin
ambient temperature water solubility (benchmark) [5]: ≥ 60 g/100 ml

C=CC(C)CCC=C(C)CCC=O (stereo not shown) [Floral Super]
VP(torr) @25° C. [4]: 0.030 torr

C=CCCCCCCCCC=O [Intreleven Aldehyde, undec-10-en-1-al]
VP(torr) @25° C. [4]: 0.060 torr

CC(C)c1cccc(C(C)CC=O)c1 (stereo not shown) [Florhydral, 3-(3-Isopropyl-phenyl)-butyraldehyde]
VP(torr) @25° C. [4]: 0.008 torr

COc1ccccc1C=O [o-anisaldehyde]
VP(torr) @25° C. [4]: 0.032 torr

CC(C=O)Cc1ccc(C(C)C)cc1 (stereo not drawn) [Cymal, Alpha-methyl-p-isopropyl phenyl propyl aldehyde]
VP(torr) @25° C. [4]: 0.007 torr

Reference: patent US20130136712A1, “Malodor Control Compositions Comprising Malodor Control Polymers And Acid Catalysts And Methods Thereof” (priority 2011, published 2013)
